Test results as given in patent US9624211B2, “Anti-cancer compounds” (Board of Regents, The University of Texas System, priority 2013, dated 2017).
“Also recorded” adds a separate entry of the source.

Assays:
Skp2 SCF E3 ligase = molecular target: T1, Skp2 SCF E3 ligase (Homo sapiens, UniProt Q13309); assay: In vivo p27 ubiquitination assay in 293T cells; format: cell-based; conditions: WT Skp2
T1 construct: expressed in transfected cells; host or cells: 293T
Experimental: (§1) In vivo and in vitro ubiquitination assays were performed as described with modification (Lin et al., 2009; Yang et al., 2009). For in vitro ubiquitination assay, recombinant GST-Akt proteins were expressed, purified and eluted from the bacterial lysates of BL21 competent cells. Flag-Skp2 SCF complex were expressed in 293T cells, immunoprecipitated by anti-Flag antibody, and eluted from Protein A/G beads using Flag peptides according to manufacturers' standard procedures. Purified GST-Akt and Flag-SCF proteins were incubated for 3 h at 37° C. in the absence and presence of Skp2 inhibitor. After incubation, protein mixtures were diluted in E1A Buffer and the supernatant fluid was precleared with Protein A/G beads for 1 h, and immunoprecipitated overnight with anti-Flag antibody, after which Protein A/G beads were added for an additional 1 h. Beads were washed 4 times with E1A Buffer. Proteins were eluted in SDS-sample buffer and subjected to immunoblotting analysis. For in vivo ubiquitination assay, 293T cells were transfected with the indicated plasmids and cultured in the absence or presence of Skp2 inhibitor for 48 h. 6 h before harvest, cells were cultured in the presence of MG132. After cell harvest, cells were lysed by the denatured buffer (6M guanidine-HCl, 0.1M Na2HPO4/NaH2PO4, 10 mM imidazole). […]

Skp2 SCF complex = molecular target: T2, Skp2 SCF complex (Homo sapiens, UniProt Q13309); assay: In vitro Skp2-mediated Akt ubiquitination assay; format: biochemical; conditions: recombinant Akt, FIG. 1H
T2 construct: made in house; host or cells: 293T cells; anti-Flag immunoprecipitation, eluted with Flag peptide
Experimental: as §1

β-TRCP = assay: In vivo ubiquitination assay, β-TRCP substrates; format: cell-based; conditions: in the presence of proteasome inhibitor
Experimental: as §1

T1 sequence (Q13309 whole entry): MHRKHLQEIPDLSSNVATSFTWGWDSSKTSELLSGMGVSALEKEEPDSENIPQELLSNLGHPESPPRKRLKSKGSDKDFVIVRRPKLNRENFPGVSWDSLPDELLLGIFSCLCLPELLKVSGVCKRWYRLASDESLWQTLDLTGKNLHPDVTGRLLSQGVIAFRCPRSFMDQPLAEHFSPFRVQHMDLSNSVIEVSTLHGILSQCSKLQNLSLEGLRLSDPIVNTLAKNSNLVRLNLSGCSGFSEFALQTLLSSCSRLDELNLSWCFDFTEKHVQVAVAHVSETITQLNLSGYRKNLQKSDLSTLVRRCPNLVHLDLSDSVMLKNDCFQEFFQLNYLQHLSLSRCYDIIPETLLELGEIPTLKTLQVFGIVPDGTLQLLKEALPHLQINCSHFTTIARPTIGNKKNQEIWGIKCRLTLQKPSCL
T2 sequence (Q13309 whole entry, one chain of several): as the sequence (Q13309 whole entry) above

With `CCc1cc2c(=O)c(-c3nc4ccccc4s3)coc2c(CN2CCCCC2)c1O` [compound #25, 3-(1,3-benzothiazol-2-yl)-6-ethyl-7-hydroxy-8-(1-piperidinylmethyl)-4H-chromen-4-one] the “Skp2-mediated p27 ubiquitination” value (Skp2 SCF E3 ligase) was “inhibited Skp2-mediated p27 ubiquitination in a dose-dependent manner; also recorded: abrogated E3 ligase activity”, the “Skp2-mediated Akt ubiquitination in vitro” value (Skp2 SCF complex) was “attenuated Skp2-mediated Akt ubiquitination” and the “β-TRCP-mediated ubiquitination (β-catenin, Snail, IκBα)” value (β-TRCP) was “no appreciable effect”.
